Test results taken from ChEMBL document CHEMBL3864155, “Dihydrostilbenes and diarylpropanes: Synthesis and in vitro pharmacological evaluation as potent nitric oxide production inhibition agents” (Bioorg Med Chem Lett, 2016).

Legend:
[1] = Cytotoxicity against mouse RAW264.7 cells assessed as decrease in cell proliferation rate after 24 hrs by MTS assay; assay type: toxicity
[2] = Antiinflammatory activity in mouse RAW264.7 cells assessed as inhibition of LPS-induced nitric oxide production at 50 to 100 uM after 18 hrs by Griess assay relative to control; assay type: functional
[3] = Antiinflammatory activity in mouse RAW264.7 cells assessed as inhibition of LPS-induced nitric oxide production at 1 uM after 18 hrs by Griess assay relative to control; assay type: functional; conditions: RAW264.7, 18 h
RAW264.7 [4] = assay: Effect on LPS-induced iNOS expression in mouse RAW264.7 cells at 10 uM after 18 hrs by Western blot method relative to LPS; assay type: functional
[5] = Cytotoxicity against mouse RAW264.7 cells assessed as cell proliferation rate at 1 uM after 24 hrs by MTS assay relative to control; assay type: toxicity; conditions: read-out: Activity
[6] = Cytotoxicity against mouse RAW264.7 cells assessed as cell proliferation rate at 10 uM after 24 hrs by MTS assay relative to control; assay type: toxicity; conditions: read-out: Activity
[7] = Cytotoxicity against mouse RAW264.7 cells assessed as cell proliferation rate at 100 uM after 24 hrs by MTS assay relative to control; assay type: toxicity; conditions: read-out: Activity
[8] = Cytotoxicity against mouse RAW264.7 cells assessed as cell proliferation rate at 50 uM after 24 hrs by MTS assay relative to control; assay type: toxicity; conditions: read-out: Activity
[9] = Antiinflammatory activity in mouse RAW264.7 cells assessed as inhibition of LPS-induced nitric oxide production at 10 uM after 18 hrs by Griess assay relative to control; assay type: functional; conditions: RAW264.7, 18 h
RAW264.7 [10] = assay: Antiinflammatory activity in mouse RAW264.7 cells assessed as inhibition of LPS-induced nitric oxide production at 1 to 10 uM after 18 hrs by Griess assay; assay type: functional, cell-based

| Compound | IC50 at 24 h [1] | inhibition (INH) [2] | inhibition at 1 µM [3] | fold change (FC) (RAW264.7 [4]) | viability at 24 h, 1 µM [5] | viability at 24 h, 10 µM [6] | viability at 24 h, 100 µM [7] | viability at 24 h, 50 µM [8] | inhibition at 10 µM [9] | inhibition (RAW264.7 [10]) |
| --- | --- | --- | --- | --- | --- | --- | --- | --- | --- | --- |
| COc1cc(CCc2cc(OC)c(OC)cc2O)ccc1O | 13.8 µM | >80% | 35.2% | 1.12 | 120% | 124% | 133% | 128% | 29.5% | – |
| CNC(=N)NCCC[C@H](N)C(=O)O [TILARGININE] | 2.73 µM | – | 15% | 0.92 - 1.02 | 100% | 100% | 97.2% | 113% | 90.1% | – |
| COc1cc(CCc2cc(OC)c(O)c(OC)c2)ccc1O [MOSCATILIN] | 4.4 µM | >80% | 7.4% | 0.93 | 143% | 52.9% | 59.6% | 47% | 78.4% | Dose-dependent effect |
| COc1ccc(CCCc2ccc(O)c(O)c2O)cc1OC | 10.7 µM | >80% | 29.6% | 0.71 | 110% | 130% | 73.2% | 86.4% | 28.6% | – |
| COc1cc(CCCc2cc(OC)c(O)c(OC)c2)ccc1O | 16.4 µM | >80% | 27.2% | 0.81 | 98.4% | 98.7% | 82% | 88.7% | 21.8% | – |
| COc1ccc(CCc2ccc(O)c(O)c2O)cc1OC | 6.02 µM | >80% | 42.7% | 0.92 | 114% | 114% | 133% | 128% | 47% | Dose-dependent effect |
| COc1cc(CCCc2cc(OC)c(OC)cc2O)ccc1O | 4.46 µM | >80% | 38.2% | 0.73 | 135% | 113% | 80.9% | 88.4% | 56.5% | Dose-dependent effect |
| COc1ccc(CCCc2ccc(O)c(O)c2OC)cc1OC | 1.84 µM | >80% | 36.9% | 0.39 | 118% | 103% | 61.9% | 86.3% | 100% | Dose-dependent effect |
| Oc1cc(O)cc(CCc2ccc3c(c2)OCO3)c1 | 14.5 µM | >80% | 17% | 0.93 | 96.8% | 90.8% | 78.9% | 82.7% | 28.3% | Dose-dependent effect |
| COc1ccc(CCc2ccc(O)c(O)c2OC)cc1OC | 2.98 µM | >80% | 24.3% | 0.65 | 106% | 99.9% | 81.9% | 94.8% | 75.5% | Dose-dependent effect |
| Oc1cc(O)cc(CCCc2ccc3c(c2)OCO3)c1 | 1.3 µM | >80% | 40.8% | 0.74 | 116% | 102% | 70.4% | 86.7% | 53.6% | Dose-dependent effect |
